From patent US6160166A, “Phosphonated agents and their antiangiogenic and antitumorigenic use” (priority 1999, dated 2000)

Columns and labels:
[1] = test system: different cancer cell lines; experiment: MTT cell proliferation, different cancer cell lines; type: cell-based, human; conditions: cancer cell lines in vitro
[2] = test system: porcine pulmonary artery macrovascular endothelial cell; experiment: Porcine pulmonary artery macrovascular endothelial cell growth, total protein and total DNA; type: cell-based
[3] = test system: human microvascular endothelial cells (HMEC-1, HMVEC-d); experiment: 3H-Leucine incorporation, inhibition of protein synthesis; type: cell-based; conditions: time course
Description: For each time period, six replicate flasks are set up. The volume of the medium MCDB-131 is 10 ml per flask. After incubation, the medium was replaced with fresh MCDB-131 containing […] of ^3 H-leucine and incubated for a further 90 min. TritonX-100 (240 μl, 10%) were then added to the contents of each flask and agitated. Trichloroacetic acid (TCA) (4 ml, 20%) is added, the contents mixed and the flasks left overnight at room temperature. After 24 hr, the flask contents was suspended by shaking, transferred to tubes and centrifuged at 4300 g. The pellets were resuspended in 10% TCA and recentrifuged and then resuspended in 3.0 ml of 0.1 M NaOH. Half of this volume was transferred to scintillation vials in 10 ml of Emulsifier Safe scintillation fluid (Packard) while the remaining 1.5 ml was used to assay DNA content (LaBarca and Paigen, 1980). The radioactive counts due to protein synthesized in the presence of ^3 H-leucine was normalized to counts/μg DNA. Protein synthesis by cells treated with the phosphonic acid agents are expressed relative to that of control cells as the percent of inhibition for each time of incubation.
After this period of time, the rate steadily declines.

prostate carcinoma cells = conditions: after 24 hr exposure (Qiao et al., 1994); cited from earlier work
[4] = test system: fetal bovine aortic endothelial cells; conditions: Takano et al., 1994; cited from earlier work
[5] = test system: microvascular endothelial cell migration; experiment: Endothelial cell migration in vitro; type: cell-based
[6] = test system: bFGF binding sites of human microvascular endothelial cells; experiment: I125 bFGF binding to human microvascular endothelial cells; conditions: for percentage of inhibition of I125 bFGF binding: low and high affinity binding sites
Source text: However, for the same concentrations of the phosphonic acid agents, the inhibition of growth factor binding was always less than 5% in relation to the control.
However, for the same concentrations of phosphonic acid agents, the inhibition of growth factor binding was always less than 5% in relation to the control.

[7] = test system: angiogenesis in mouse (Matrigel plus bFGF and heparin); conditions: Pesenti et al. (1992); cited from earlier work

Description for HMEC-1 cells: Triplicates were carried out for each period of incubation. At the end of each incubation period, the cells were processed through different washings and finally to differential centrifugation. Different cell fractions were transferred to separate scintillation vials, solubilized in a liquid scintillation cocktail and counted in a 2000 CA TRICARB Liquid Scintillation Counter.

Question: With `Cc1ccc(C(=O)Nc2ccc(S(=O)(=O)O)c3cc(S(=O)(=O)O)cc(S(=O)(=O)O)c23)cc1NC(=O)c1cccc(NC(=O)Nc2cccc(C(=O)Nc3cc(C(=O)Nc4ccc(S(=O)(=O)O)c5cc(S(=O)(=O)O)cc(S(=O)(=O)O)c45)ccc3C)c2)c1` [suramin] as the compound, how does the “antiproliferative activity, in words” value [1] read?
Answer: The value was “inhibited cell proliferation in a dose-related manner”.

Question: What about the “effect on total protein and total DNA” value ([2]; suramin higher than 250 μg/ml) of the same compound?
Answer: The value was “significant dose-related reduction in total protein and total DNA”.

Question: What about the “effect on porcine pulmonary artery macrovascular endothelial cell growth” value ([2]; up to 100 μg/ml) of the same compound?
Answer: Its value is “did not have any significant inhibitory effect”.

Question: And the “effect on protein synthesis” value [3]?
Answer: Its value is “no change in the rate of protein synthesis until suramin and the cells have been incubated together for at least 24 hr”.

Question: And the “effect on cell cycle” value (prostate carcinoma cells)?
Answer: The value was “slowly arrested in the G1 phase”.

Question: And the “time to plateau of cell incorporation” value (HMEC-1 cells)?
Answer: The value was “around 24 hr”.

Question: What about the “concentration inhibiting plasminogen activator activity induced by bFGF” value [4] of the same compound?
Answer: The value was “higher than 250 μg/ml”.

Question: What about the minimal effective concentration ([5]; Endothelial cell, read-out: concentration inhibiting endothelial cell migration) of the same compound?
Answer: Its minimal effective concentration is greater than 150 µg/mL.

Question: What about the “inhibition of migration, in words” value ([5]; number of cells migrated and distance traveled) of the same compound?
Answer: Its value is “significantly inhibited endothelial cell migration”.

Question: What about the “percentage of inhibition of I125 bFGF binding” value ([6]; 25 μM) of the same compound?
Answer: The value was 9%.

Question: And the “percentage of inhibition of I125 bFGF binding” value ([6]; 70 μM)?
Answer: Its value is 96%.

Question: And the “effect on bFGF binding, in words” value ([6]; same molar concentrations as suramin)?
Answer: The value was “inhibited I^125 bFGF binding in a dose-related manner”.

Question: What about the “inhibition of angiogenesis in vivo, in words” value [7] of the same compound?
Answer: The value was “effective inhibitor of angiogenesis in vivo”.
